Laboratory results from patent publication US20040116513A1, “Method to alter the isomeric profile of trans fatty acid in ruminant meat and milk and to increase the concentration of $I(cis)-11 conjugated linoleic acid” (priority 2000, published 2004).

How the values were obtained:
[1] = test system: multiparous Holstein cows; experiment: Animal study of dietary addition of vitamin E to an oilseed diet: milk production and milk fatty acid profile; format: in vivo, cow; conditions: result in words
Method: The effect of Vitamin E addition in the diet on milk fat depression as well as on the biohydrogenation shift from trans-11 to trans-10 fatty acids classically observed upon feeding of high doses of unsaturated fatty acids, was tested in vivo with six multiparous Holstein cows that yielded more than 25 kg milk/d.
A Latin square experimental design consisting of three groups of two cows, three periods of four weeks and three diets (control, oilseed and oilseed+tocopheryl-acetate) was followed. For all groups, the mixed basal diet consisted, in dry matter terms, of 30% grass silage, 46% corn silage, 13% dried sugar beet pulp, 10% soybean meal and 1% mineral & vitamin mixture. The oilseed concentrate consisted of 50% barley, 25% rapeseed and 25% linseed, whereas its control counterpart was made of 50% barley, 25% rapeseed meal and 25% linseed meal.
The amounts of oilseeds concentrate offered were calculated to provide approximately 550 g/d of supplemental lipids. In addition, cows fed oilseed diet plus Vitamin E received 9600 IU of the vitamin per day, together with the oilseed concentrate.
Milk weights were automatically recorded daily at each milking. Milk samples were taken during the last week of each period and analysed for crude protein, fat and fatty acid profile. Quantification of the trans-C18:1 and CLA isomers was performed by gas chromatography as described in Griinari et al. (1998).

growing chicks = conditions: cited from earlier work
lactating dairy cow = experiment: Vitamin E tolerated dose extrapolated to lactating dairy cow; format: in vivo; conditions: 500 kg lactating dairy cow, extrapolated from chicks
Description: Vitamin E has a toxic effect only at very high dosages. In growing chicks, daily intake of 1000 IU/kg of body weight is without negative effects. Corresponding dietary dose in a 500 kg lactating dairy cow would be 500 000 IU/d which far exceeds the effective dose range in this invention as described before.

CC(=O)Oc1c(C)c(C)c2c(c1C)CCC(C)(CCC[C@H](C)CCC[C@H](C)CCCC(C)C)O2 (mixture of isomers) [vitamin E, all-rac-α-tocopheryl acetate]
CLA content (cis-9, trans-11 C18:2) of milk fat [1]: increased CLA content dramatically
level of trans-10 C18:1 in milk fat [1]: decreased to control levels
level of trans-11 C18:1 in milk fat [1]: increased significantly
levels of C4:0 to C16:0 saturated fatty acids in milk [1]: no major impact
levels of stearic acid (C18:0) in milk [1]: no major impact
milk fat yield [1]: complete recovery
shift in the ruminal biohydrogenation process (trans-11 to trans-10) [1]: completely abolished
total monounsaturated C18 (C18:1) fatty acids in milk [1]: no major impact
daily intake without negative effects (growing chicks): 1000 IU/kg of body weight
corresponding dietary dose without negative effects (lactating dairy cow): 500 000 IU/d
